Results as given in patent publication US20250314668A1, “DNAZYMES FOR SENSING AND IMAGING TARGET MOLECULES” (BOARD OF REGENTS, THE UNIVERSITY OF TEXAS SYSTEM, priority 2024, published 2025).
Substitutions are numbered along the chain they refer to. Entries after “also recorded” stand apart in the source; their conditions may differ. d = 2'-deoxy (DNA); m = 2'-O-methyl; r = 2'-OH (RNA)

How the values were obtained:
HT1080 cells = assay: Fe^2+ and Fe^3+ imaging in cells treated with SAS and Fer-1, with or without NCOA4 knock down; type: cell-based
Description: Ferroptosis is a Fe-related cell death. To understand how Fe^2+ and Fe^3+ have a role in this process, the cells were incubated with Sulfasalazine (SAS), which inhibits System Xc- and induces ferroptosis. Elevated Fe^2+ and Fe^3+ levels, as well as an elevated Fe^3+/Fe^2+ ratio over time, were observed when compared with nontreated controls. This elevation is inhibited by Ferrostatin-1 (Fer-1), an antioxidant that inhibits lipid peroxidation by scavenging alkoxyl radicals. […] This observation indicates the association between Fe levels and lipid peroxidation.
To understand how labile iron and iron redox changes are associated with cell ferroptosis, the study focused on the regulatory effects of NCOA4 on Fe^2+ and Fe^3+. NCOA4 is a key gene that regulates iron homeostasis through ferritinophagy, degrading iron storage protein, and releasing iron into the cell. To understand how NCOA4 influences Fe^2+ and Fe^3+, the study used the CRISPR/Cas technique to knock down NCOA4 expressions. As shown with the western blot, single guide RNAs knocked down the expression of NCOA4 in the HT1080 cells. In these cells, reduced Fe^2+ and Fe^3+ signals were detected as indicated by the DNAzyme sensors. In the meanwhile, the redox ratio of Fe^3+/Fe^2+ elevated, indicating the NCOA4 may not only regulate the labile iron amount but also the Fe redox states.
On the contrary, when inhibiting ferroptosis with Fer-1, reduced Fe^2+ and Fe^3+ levels were observed.

[1] = PAGE gel activity assays of Fe^2+ H5 DNAzyme (cleavage site, truncation, pH, mutation combinations, selectivity); type: biochemical; details: for cleavage by the original Fe^2+ H5 DNAzyme: presence of Fe^2+, anaerobic conditions; for relative activity of combined point mutations versus original: original FAM-labeled substrate, 100 μM FeCl2, 2 hours, room temperature
Description: RNA Cleavage Dependence of Fe^2+ H5 and Fe^3+ B12 DNAzymes: To investigate the Fe^2+ H5 and Fe^3+ B12 DNAzymes, various cleavage site modifications were incorporated into the substrate strands. The original Fe^2+ H5 DNAzyme was combined with Fe^2+ H5 substrate strands containing either a 2′-hydroxyl (2′OH), 2′-hydrogen (2′H), or 2′O-methyl (2′OMe) at the cleavage site. The original Fe^2+ H5 DNAzyme cleaves the Fe^2+ H5 substrate strand containing 2′OH at the cleavage site in the presence of Fe^2+ under anaerobic conditions. […] Similarly, the original Fe^3+ B12 DNAzyme was combined with Fe^3+ B12 substrate strands containing either 2′OH, 2′H, or 2′OMe at the cleavage site. The original Fe^3+ B12 DNAzyme cleaves the Fe^3+ B12 substrate strand containing 2′OH at the cleavage site in the presence of Fe^3+. […] These findings highlight the critical role of the 2′OH group at the cleavage site in enabling DNAzyme activity for both Fe^2+ H5 and Fe^3+ B12 systems, as substitutions with 2′H or 2′OMe impede cleavage.
Truncations of Fe^2+ H5 and Fe^3+ B12 DNAzymes' Binding Arms: To further investigate the Fe^2+ H5 and Fe^3+ B12 DNAzymes, the DNAzymes were truncated at the 5′ and 3′ ends and tested using the FAM-labeled original substrate strand through activity assays assessed by PAGE gel. The activity of the Fe^2+ H5 DNAzyme with the original substrate strand remains relatively unchanged when 1 or 2 nucleotides are truncated from either the 3′ or 5′ end. […] The activity of the Fe^3+ B12 DNAzyme with the original substrate strand is maintained when 1 or 2 nucleotides are truncated from the […]. A notable reduction in relative intensity occurs when 3, 4, or 5 nucleotides are truncated from the 5′ end. Additionally, truncation of 1, 2, or 3 nucleotides from the 3′ end also results in a decrease in relative intensity.
pH Dependency of Fe^2+ H5 and Fe^3+ B12 DNAzymes: To further investigate the impact of reaction conditions on catalytic activity, the study evaluated the influence of pH system. For the Fe^2+ H5 DNAzyme, the study assessed cleavage efficiency across a pH range of 6.0 to 7.5 in MOPS, MES, Bis-Tris, or Tris under anaerobic conditions with 100 μM FeCl2.
Combination of Fe^2+ H5 DNAzyme strand Improvements: Given the enhanced activity observed with several point mutations in the Fe^2+ H5 DNAzyme strand, the study investigated whether combinations of these point mutations would further improve the DNAzyme's activity. The study designed 41 combinations of the 6-point mutations located at positions 39 (A39T and A39G), 40 (A40C), 51 (G51C), 52 (C52G), and 54 (T54C), along with the original Fe^2+ H5. Each sequence was tested with the original FAM-labeled Fe^2+ substrate strand in the presence of 100 μM FeCl2 for 2 hours at room temperature. […] Certain combinations of mutations enhance activity, while others diminish it, indicating interactions that are not merely additive. The specific positions of the mutations play a critical role in determining the overall activity, with some combinations inducing beneficial conformational changes and others disrupting key structural elements. These findings highlight the importance of understanding the contextual interplay of mutations for optimizing DNAzyme performance. The identified combinations that increase activity offer valuable insights for the future engineering of more efficient DNAzyme variants.
Combining Enhanced Fe^2+ H5 and Fe^3+ B12 DNAzymes Single Point Mutations: To assess the potential additive effects of combining enhanced Fe^2+ H5 DNAzyme strands with substrate strands, the study evaluated the relative intensities of point mutations within these strands. Reactions were conducted in a buffer solution containing 25 mM Bis-Tris, 200 mM NaCl at pH 6.5, with 250 nM each of the mutated H5 DNAzyme strand and the FAM-labeled mutated H5 substrate strand, and 100 μM FeCl2. […]

[2] = Point mutation gel cleavage assay of Fe^2+ H5 DNAzyme and substrate (heat map); type: biochemical; details: 100 μM FeCl2, pH 6.5, anaerobic, overnight; for activity of mutated substrate strand normalized to original Fe^2+ H5 Substrate: original DNAzyme strand; for activity of mutated DNAzyme strand normalized to original Fe^2+ H5 DNAzyme: FAM-labeled original substrate
Description: (§1) FIG. 7 depicts a heat map illustrating the impact of point mutations within the catalytic core of the Fe^2+ H5 DNAzyme, against the unaltered Fe^2+ H5 substrate strand for comparative analysis with 25 mM Bis Tris, 200 mM NaCl at pH 6.5 with 100 μM FeCl2 in anaerobic conditions. The reaction occurred overnight at room temperature and analyzed by polyacrylamide gel electrophoresis.
as §1, with “8” for “7”, “Substrate strand,” for “DNAzyme,”, “DNAzyme” for “substrate”
(§2) Point mutations were intentionally introduced into the Fe^2+ H5 DNAzyme, and subsequently assessed in comparison to the unaltered Fe^2+ H5 Substrate under controlled reaction conditions. These conditions include a solution containing 25 mM Bis Tris, 200 mM NaCl at pH 6.5, with concentrations set at 250 nM for both the mutated H5 DNAzyme Strand and the FAM-labeled Original H5 Substrate Strand, alongside 100 μM FeCl2. The reaction proceeded overnight at room temperature under anaerobic conditions, followed by analysis via electrophoresis on a 15% denaturing gel.
as §2, with “Fe^2+ H5 Substrate Strand, and subsequently” for “Fe^2+ H5 DNAzyme, and subsequently”, “Fe^2+ H5 DNAzyme under controlled” for “Fe^2+ H5 Substrate under controlled”, “both the Original H5 DNAzyme” for “both the mutated H5 DNAzyme”, “the FAM-labeled mutated H5 Substrate” for “the FAM-labeled Original H5 Substrate”

With `O=C(O)c1cc(/N=N/c2ccc(S(=O)(=O)Nc3ccccn3)cc2)ccc1O` [SAS, Sulfasalazine] as the molecule, how does the “Fe^2+ and Fe^3+ levels in control guide RNA cells” value (HT1080 cells) read?
Its value is “elevated”.

And the “Fe^2+ and Fe^3+ levels compared with nontreated controls” value (HT1080 cells; over time)?
The value was “Elevated”.

And the “Fe^3+/Fe^2+ ratio compared with nontreated controls” value (HT1080 cells; over time)?
Its value is “elevated”.

What about the “increase in Fe^2+ and Fe^3+ levels in NCOA4 downregulated cells” value (HT1080 cells; similar treatments as control cells) of the same molecule?
The value was “smaller increase”.

Which “cleavage by the original Fe^2+ H5 DNAzyme” value [1] does the source give for “Fe^2+ H5 Original Substrate (2′OMe) (CGGACCCGTATCAATCTCACGTATAGGATATCCA; sugars from the 5' end d24 m1 d9, backbone not given here)” here?
Its value is “does not cleave”.

With “Fe^2+ H5 Original Substrate (2′H) (CGGACCCGTATCAATCTCACGTATAGGATATCCA; DNA, backbone not given here)” as the molecule, how does the “cleavage by the original Fe^2+ H5 DNAzyme” value [1] read?
The value was “does not cleave”.

With `CCOC(=O)c1ccc(NC2CCCCC2)c(N)c1` [Fer-1, Ferrostatin-1] as the molecule, how does the “effect of Fer-1 on the SAS-induced elevation of Fe levels” value (HT1080 cells; Fer-1 added to SAS-treated cells) read?
The value was “inhibited; also recorded: reduced”.

And the “Fe^2+ and Fe^3+ levels in control guide RNA cells” value (HT1080 cells)?
Its value is “reduced”.

What about the “Fe^2+ and Fe^3+ levels compared with nontreated controls” value (HT1080 cells; over time) of the same molecule?
The value was “slightly reduced”.

With “Fe^2+ H5 Substrate T11C (CGGACCCGTACCAATCTCACGTATAGGATATCCA; DNAzyme; sugars from the 5' end d24 r1 d9, backbone not given here; FAM-labeled in assays, further chemistry not fully specified)” as the molecule, how does the “activity of mutated substrate strand normalized to original Fe^2+ H5 Substrate” value [2] read?
Its value is “heightened activity”.

Which “activity of mutated substrate strand normalized to original Fe^2+ H5 Substrate” value [2] does the source give for “Fe^2+ H5 Substrate A13C (CGGACCCGTATCCATCTCACGTATAGGATATCCA; DNAzyme; sugars from the 5' end d24 r1 d9, backbone not given here; FAM-labeled in assays, further chemistry not fully specified)” here?
The value was “heightened activity”.

With “Fe^2+ H5 Substrate A14T (CGGACCCGTATCATTCTCACGTATAGGATATCCA; DNAzyme; sugars from the 5' end d24 r1 d9, backbone not given here; FAM-labeled in assays, further chemistry not fully specified)” as the molecule, how does the “activity of mutated substrate strand normalized to original Fe^2+ H5 Substrate” value [2] read?
The value was “heightened activity”.

B1: Fe^2+ H5 DNAzyme A39T (nucleic acid)
chain: TGGATATCTCCTAGCCAGACTGTTATGTGTGATACGGCTAACTTCGTGATGCCTCTACGGGTCCG
modifications: DNA, backbone not given here
For B1, which “activity of mutated DNAzyme strand normalized to original Fe^2+ H5 DNAzyme” value [2] is on record?
Its value is “heightened activity”.

B2: Fe^2+ H5 DNAzyme Combo 29 (nucleic acid)
chain: B1 chain with T39G, G51C, C52G
modifications: DNA, backbone not given here
With B2 as the molecule, how does the “relative activity of combined point mutations versus original” value (shortened to “relative activity”) [1] read?
Its value is “increased the relative activity”.

B3: Fe^2+ H5 DNAzyme A39G (nucleic acid)
chain: B1 chain with T39G
modifications: DNA, backbone not given here
Which “activity of mutated DNAzyme strand normalized to original Fe^2+ H5 DNAzyme” value [2] does the source give for B3 here?
The value was “heightened activity”.

B4: Fe^2+ H5 DNAzyme Combo 31 (nucleic acid)
chain: B1 chain with T39G, A40C, G51C, C52G
modifications: DNA, backbone not given here
Which “relative activity” value [1] does the source give for B4 here?
Its value is “decreased the relative activity”.

B5: Fe^2+ H5 DNAzyme Combo 30 (nucleic acid)
chain: B1 chain with T39G, A40C, T54C
modifications: DNA, backbone not given here
With B5 as the molecule, how does the “relative activity” value [1] read?
The value was “increased the relative activity”.

B6: Fe^2+ H5 DNAzyme A40C (nucleic acid)
chain: B1 chain with T39A, A40C
modifications: DNA, backbone not given here
With B6 as the molecule, how does the “activity of mutated DNAzyme strand normalized to original Fe^2+ H5 DNAzyme” value [2] read?
The value was “heightened activity”.

B7: Fe^2+ H5 DNAzyme C52G (nucleic acid)
chain: B1 chain with T39A, C52G
modifications: DNA, backbone not given here
For B7, which “activity of mutated DNAzyme strand normalized to original Fe^2+ H5 DNAzyme” value [2] is on record?
Its value is “heightened activity”.

B8: Fe^2+ H5 DNAzyme Combo 41 (nucleic acid)
chain: B1 chain with T39G, A40C, G51C, C52G, T54C
modifications: DNA, backbone not given here
Which “relative activity” value [1] does the source give for B8 here?
The value was “increased the relative activity”.

B9: Fe^2+ H5 DNAzyme G51C (nucleic acid)
chain: B1 chain with T39A, G51C
modifications: DNA, backbone not given here
For B9, which “activity of mutated DNAzyme strand normalized to original Fe^2+ H5 DNAzyme” value [2] is on record?
Its value is “heightened activity”.

B10: Fe^2+ H5 DNAzyme T54C (nucleic acid)
chain: B1 chain with T39A, T54C
modifications: DNA, backbone not given here
For B10, which “activity of mutated DNAzyme strand normalized to original Fe^2+ H5 DNAzyme” value [2] is on record?
Its value is “heightened activity”.
